# Patent US20180207294A1, “NON-ALCOHOLIC FATTY LIVER REGULATING FACTOR 14-3-3 PROTEIN” (Korea University Research and Business Foundation, priority 2015, published 2018)
# Legend:
# FAT/CD36 promoter = experiment: Chromatin immunoprecipitation (ChIP) of PPARγ2 on FAT/CD36 promoter, HepG2 cells; format: cell-based; conditions: overexpression of 14-3-3β / 14-3-3γ, FIG. 7C upper side
# Procedure: In addition, for chromatin immunoprecipitation (ChIP), HepG2 cells were seeded in a 100 mm plate at a density of 4×10^6 cells per each well, and then transfected with Flag-PPARγ2 DNA (4 μg), mGST-14-3-3β DNA (4 μg) or mGST-14-3-3γ DNA (4 μg), and si-14-3-3β (20 μM, Santa Cruz) or si-14-3-3γ (20 μM, Santa Cruz) using an E-fection plus reagent (Lugen). A ratio of DNA to the E-fection plus reagent was 1:2, and this method was performed according to a manufacturer's manual. The corresponding cells were treated with 0.75% formaldehyde at room temperature for 15 minutes, glycine was added thereto, and the resulting cells were scraped into ice-cold PBS and centrifuged at 1,000×g and 4° C. for 3 minutes to remove a supernatant, pellets were dissolved with 400 μl of FA lysis buffer (50 mM HEPES, 150 mM NaCl, 2 mM EDTA pH8.0, 1% Triton-X100, 0.1% NaDeoxycholate), and then lysed using a sonicator twice for 10 minutes at a high voltage under the following condition: lysis for […] and resting for 30 seconds. […]
# In addition, the binding of PPARγ2 and a binding strength thereof according to the expression of 14-3-3β and 14-3-3γ were evaluated by ChIP assay using a PPAR response element (PPRE) known as a binding site of PPARγ2 present in the FAT/CD36 promoter. […]
# PPAR-RXR complex = biological target: T1, PPAR-RXR complex (Homo sapiens, UniProt P37231); experiment: Formation of PPAR-RXR complex under 14-3-3 overexpression; format: binding; conditions: overexpression of 14-3-3β and 14-3-3γ; FIG. 8C
# T1 sequence (P37231 1-505): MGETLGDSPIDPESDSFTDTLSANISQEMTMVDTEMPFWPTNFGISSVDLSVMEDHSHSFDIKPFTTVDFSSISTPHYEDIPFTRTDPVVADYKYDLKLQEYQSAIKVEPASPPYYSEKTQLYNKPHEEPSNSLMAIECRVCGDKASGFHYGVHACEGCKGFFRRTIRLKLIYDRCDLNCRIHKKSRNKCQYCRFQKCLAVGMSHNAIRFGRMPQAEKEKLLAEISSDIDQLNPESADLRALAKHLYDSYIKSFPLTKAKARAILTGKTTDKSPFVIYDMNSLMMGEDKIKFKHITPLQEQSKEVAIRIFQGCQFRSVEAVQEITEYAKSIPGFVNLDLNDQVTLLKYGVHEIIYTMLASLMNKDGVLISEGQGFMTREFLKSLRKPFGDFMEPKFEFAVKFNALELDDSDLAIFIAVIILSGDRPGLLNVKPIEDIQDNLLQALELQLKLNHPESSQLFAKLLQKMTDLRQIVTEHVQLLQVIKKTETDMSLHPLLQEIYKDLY
# T1 sequence (P19793 1-462 partner): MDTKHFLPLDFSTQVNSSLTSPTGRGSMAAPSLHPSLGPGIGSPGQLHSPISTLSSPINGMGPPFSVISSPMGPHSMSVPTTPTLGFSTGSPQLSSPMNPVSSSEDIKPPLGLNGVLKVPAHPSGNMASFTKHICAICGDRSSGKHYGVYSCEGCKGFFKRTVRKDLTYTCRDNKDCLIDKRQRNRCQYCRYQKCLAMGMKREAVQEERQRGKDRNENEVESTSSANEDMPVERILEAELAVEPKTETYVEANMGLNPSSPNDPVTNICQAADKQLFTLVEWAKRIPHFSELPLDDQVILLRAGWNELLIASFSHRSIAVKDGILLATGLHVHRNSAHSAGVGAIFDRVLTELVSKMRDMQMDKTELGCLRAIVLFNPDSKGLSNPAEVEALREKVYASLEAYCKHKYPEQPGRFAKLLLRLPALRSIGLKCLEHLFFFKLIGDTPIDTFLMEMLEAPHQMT
# [1] = tested on: primary mouse hepatocytes; experiment: Oil Red-O lipid accumulation, primary mouse hepatocytes; format: cell-based; conditions: 14-3-3 overexpression, 200 μM oleic acid 72 hours, FIG. 9B
# Procedure: HepG2 cells and primary mouse hepatocytes were separately seeded in a 6-well plate at a density of 4×10^5 cells per each well, and then transfected with GFP-14-3-3β DNA (1 μg) or GFP-14-3-3γ DNA (1 μg) and si-14-3-3β (10 μM, Santa Cruz) or si-14-3-3γ (10 μM, Santa Cruz) using an E-fection plus reagent (Lugen). A ratio of DNA to the E-fection plus reagent was 1:2, and this method was performed according to a manufacturer's manual. […] The stained cells were bleached with 1 ml of isopropanol and analyzed at a wavelength of 550 nm using a DU530 spectrophotometer (Beckman Instruments, Palo Alto, Calif.).
# HepG2 cells = experiment: PPARγ2 target gene mRNA (PCR) with 14-3-3 overexpression and oleic acid, HepG2 cells; format: cell-based, human; conditions: 14-3-3 overexpression, 200 μM oleic acid 72 hours, FIG. 7A
# Procedure: HepG2 cells were seeded in a 6-well plate at a density of 4×10^5 cells per each well, and then transfected with GFP-14-3-3β DNA (4 μg) or GFP-14-3-3γ DNA (4 μg) using an E-fection plus reagent (Lugen). A ratio of DNA to the E-fection plus reagent was 1:2, and this method was performed according to a manufacturer's manual. After transfection, the cells were treated with 200 μM of oleic acid (OA) for 72 hours, and for mRNA extraction, the corresponding cells were lysed with 1 ml/well of TRIzol (Invitrogen), 200 μl of chloroform was added thereto and mixed well, the resultant cells were maintained at room temperature for 5 minutes and then centrifuged at 12,000×g and 4° C. for 15 minutes, the obtained supernatant was mixed with 500 μl of isopropanol and then put on ice for 10 minutes, and the resulting supernatant was centrifuged at 12,000×g and 4° C. for 15 minutes to remove a supernatant, and then pellets were dissolved with tertiary distilled water treated with diethyl pyrocarbonate (DEPC). 2 μg of mRNA was synthesized into cDNA using a Superscript First Strand cDNA Synthesis Kit (Bioneer, Daejeon, South Korea) and the synthesized cDNA as a template was amplified through polymerase chain reaction (PCR) using primers specific to PPARγ2 (SEQ ID NOS: 1 and 2), 14-3-3β (SEQ ID NOS: 3 and 4), 14-3-3γ (SEQ ID NOS: 5 and 6), SREBP-1c, FAT/CD36, and β-actin of humans, and was amplified through real-time PCR using primers specific to SREBP-1c, FAT/CD36, and GAPDH of mice. β-actin and GAPDH were used as controls to see whether mRNAs of the respective cells were compared in the same amount.
Substance,binding of PPARγ2 to the FAT/CD36 promoter (ChIP) (FAT/CD36 promoter),formation of the PPAR-RXR complex (PPAR-RXR complex),lipid accumulation by oleic acid (Oil Red-O) [1],mRNA expression of FAT/CD36 (HepG2 cells),mRNA expression of SREBP-1c (HepG2 cells)
"14-3-3β: 14-3-3 isoform protein, overexpressed by DNA transfection; regulating factor that increases transcriptional activity of PPARγ2",increased,did not affect the formation of the PPAR-RXR complex,increased lipid accumulation,further increased,further increased
"14-3-3γ: 14-3-3 isoform protein, overexpressed by DNA transfection; regulating factor that decreases transcriptional activity of PPARγ2",inhibited,did not affect the formation of the PPAR-RXR complex,reduced lipid accumulation,reduced,reduced
